# Data taken from patent publication US20060019565A1, “Method for delivering biologically active substnces” (priority 2002, published 2006).
# Legend:
# [1] = Antimicrobial protection of treated cotton fibre
# Protocol: (§1) II.5 A padding bath is prepared containing 20 g/l of compound (101) and is applied at 20-25° C. with a pick-up rate of 70-80% on cotton. After drying (65 to 15 s at 70-130° C.), the resulting fabric contains the latent menthol.
# II.6 The same treatment is made on cotton using compound (102) in place of (101).
# II.7 A cotton fabric is similarly treated with an aqueous formulation of compounds of formula (101) and (102).
# [2] = Release of the hydroxyl compound by hydrolysis from a treated substrate (PAN fabric, cotton, paper); format: physicochemical; conditions: for release of the active hydroxyl compound upon hydrolysis: concentrated aqueous formulation sprayed on cellulosic substrate (paper, cotton), air-dried
# Protocol: After the treatment with the aqueous solution of the ester compound a slow release of the biologically active hydroxyl compound on the substrate starts through hydrolysis. The velocity of this process can easily be controlled through pH and/or temperature variations.
# II.1 A sample of 15 g polyacrylonitrile (PAN) fabric (Dralon 5-4301), pretreated with a commercial wetting agent (TINOVETIN® JU, supplied by Ciba Specialty Chemicals) at 60° C. during 10 min and rinsed with cold water, is fixed on a support material and in an exhaust dyeing machine of type Ahiba treated with the following composition: • 7.5 ml aqueous Na2SO4 solution (100 g/l) • 2.25 ml aqueous sodium acetate solution (100 g/A) • 2.25 ml 80% acetic acid • 233.5 ml water • 3.0 ml cationic retarder (TINEGAL® MR, Ciba Specialty Chemicals) (100 g/l) • 1.5 ml aqueous solution of compound of formula (101) (100 g/l)
# The temperature is kept at 98° C. for 20 min; the pH of the bath after cooling to room temperature is 4.7. The sample of PAN fabric is rinsed with cold water and subsequently dried in the air. The resulting PAN fabric contains the latent menthol.
# as §1
# II.8 A concentrated aqueous formulation of compound (101) is sprayed on a cellulosic substrate (e.g. paper, cotton).
# [3] = cotton treated with aqueous formulation of (101) and (102) together
# [4] = cotton, padding bath 20 g/l, 20-25° C., pick-up 70-80%
Structure (SMILES),antimicrobial protection ([1]; cotton padded with compound (102) alone),"antimicrobial protection [1, 3]",release of the active hydroxyl compound upon hydrolysis [2],"release of the active hydroxyl compound from treated fabric [2, 3]","release of the active hydroxyl compound from treated fabric [2, 4]","regeneration of menthol from treated fabric ([2]; PAN fabric, exhaust treatment 98° C. for 20 min, bath pH 4.7-5.2, velocity of release controlled by pH)"
CN(C)CC[N+](C)(C)CC(=O)Oc1cc(Cl)ccc1Oc1ccc(Cl)cc1Cl.[Cl-] [compound 102],good antimicrobial protection over time,good antimicrobial protection over time,releases triclosan upon hydrolysis,slowly released,slowly released,
CC1CCC(C(C)C)C(OC(=O)C[N+](C)(C)CCN(C)C)C1.[Cl-] (stereo not drawn) [compound 101],,,releases menthol upon hydrolysis,slowly released,gradually regenerated,gradually regenerated
